Measured values as given in article PMC11857211, “Bioprospecting Bioactive Peptides in Halobatrachus didactylus Body Mucus: From In Silico Insights to Essential In Vitro Validation” (Marine Drugs, 2025).
Marks after values point to notes of the source that are not given here.

Experiments:
S. enterica biofilm = assay: Antibiofilm activity (crystal violet); type: cell-based, Salmonella enterica; conditions: 24 h incubation, HdKTLR 262, HdKNL 262, HdPPP 130, HdVLPN 204, HdLPN 227 µg/mL, OD 595 nm
Protocol: (§1) The antibiofilm activity was determined according to the following method, with some modifications. Taking the microplate from 24 h inhibition growth curves, the contents of the plate were discarded, and each well was carefully washed three times with distilled water to remove non-adherent cells. The adhered cells were fixed with 150 µL of methanol for 10 min. Then, the methanol was discarded, the plates were left to dry, and then, the fixed biofilm was stained with […] of crystal violet (CV) for 10 min. Excess stain was rinsed out by placing the plate under slow-running tap water. Once the plates were air-dried, the dye attached to the adherent cells was resolubilized by adding 150 µL of 33% (v/v) glacial acetic acid and agitated for 15 min. The optical density of the solution obtained was measured at 595 nm using a multidetection plate reader (Synergy H1, Winooski, VT, USA). All tests were carried out in duplicate, with a positive control using an inoculated culture in MH broth and a negative control using MH broth only. The results are presented as the percentage of biofilm formation, calculated according to the following formula, where the OD of the sample is the measured OD of the inoculated medium mixed with the peptides, and the OD of the positive control is the OD measured for the positive control.% Biofilm formation = (ODsample/ODpositive control) × 100(1)

[1] = cited from earlier work
Excerpt: Table 4 Summary of peptide solubility and concentration values. | column: Solubility || A high-performance size exclusion chromatography (HPSEC) analysis was employed to validate the molecular weight of the selected peptides, HdKTLR, HdKNL, HdVLPN, and HdLPN, synthesized by GenScript Biotech (Rijswijk, The Netherlands), following the preparation instructions provided in the technical datasheet. […] At higher concentrations, viscosity may increase due to molecular interactions between DMSO, buffer ions, and water. In iso ...

[2] = test system: Staphylococcus aureus ATCC 6538; assay: Growth inhibition curves; type: cell-based; conditions: HdKTLR 262, HdKNL 262, HdPPP 130 (5% DMSO), HdVLPN 204, HdLPN 227 µg/mL; MH broth, OD 600 nm hourly, 24 h, 37 °C
Protocol: (§2) The antimicrobial activity of the mucus samples was evaluated following the method by against the following pathogenic bacteria: Gram-negative Escherichia coli ATCC 25922, Salmonella enterica serovar Enteritidis ATCC 13076, and Pseudomonas aeruginosa ATCC 27853 and Gram-positive Staphylococcus aureus ATCC 6538. The mucus samples were combined with a 1/10 ratio of inoculum containing 1% (v/v) of bacteria cultured for 24 h in MH broth. For the positive control, deionized water was used instead of mucus samples with a 1% inoculum, while deionized water with MH served as the negative control. A control using chloramphenicol was made at a concentration of 16 µg/mL for E. coli, S. enterica, and P. aeruginosa and 100 µg/mL for S. aureus. The mixture was then transferred to a 96-well microplate (Sarstedt, Germany), and the optical density (OD) at 600 nm was measured every hour for a 24 h period at 37 °C using a microplate reader (Multiskan GO, Thermo Scientific, Finland). An increase in OD indicated bacterial growth.

[3] = test system: Pseudomonas aeruginosa ATCC 27853; assay: Growth inhibition curves; type: cell-based; conditions: HdKTLR 262, HdKNL 262, HdPPP 130 (5% DMSO), HdVLPN 204, HdLPN 227 µg/mL; MH broth, OD 600 nm hourly, 24 h, 37 °C
Protocol: as §2

[4] = test system: Escherichia coli ATCC 25922; assay: Growth inhibition curves; type: cell-based; conditions: HdKTLR 262, HdKNL 262, HdPPP 130 (5% DMSO), HdVLPN 204, HdLPN 227 µg/mL; MH broth, OD 600 nm hourly, 24 h, 37 °C
Protocol: as §2

[5] = test system: Salmonella enterica serovar Enteritidis ATCC 13076; assay: Growth inhibition curves; type: cell-based; conditions: HdKTLR 262, HdKNL 262, HdPPP 130 (5% DMSO), HdVLPN 204, HdLPN 227 µg/mL; MH broth, OD 600 nm hourly, 24 h, 37 °C
Protocol: as §2

P. aeruginosa biofilm = assay: Antibiofilm activity (crystal violet); type: cell-based, Pseudomonas aeruginosa; conditions: 24 h incubation, HdKTLR 262, HdKNL 262, HdPPP 130, HdVLPN 204, HdLPN 227 µg/mL, OD 595 nm
Protocol: as §1

ORAC assay = conditions: fluorescence monitored 80 min, means (n ≥ 3) ± SD, nd: not detected
Protocol: The ORAC assay followed the protocol outlined by Coscueta et al.. […] Fluorescence was monitored for 80 min at 1 min intervals. Each sample, standard, blank, or control, analysis was duplicated. The final ORAC values were expressed as µmol TE/µmol of peptide for the peptides and µmol TE /mg of protein for the digestion retentate and permeate contents.

Bifidobacterium species = assay: Probiotic growth curves; type: cell-based; conditions: B. longum BG3, B. animalis Bo, BB-12, BLC, B. breve; HdKTLR 262, HdKNL 262, HdVLPN 204, HdLPN 227 µg/mL; MRS broth, 24 h, 37 °C, OD 650 nm
Protocol: (§3) The effect of the peptides on probiotics was evaluated using the following probiotic Lactobacillus and Bifidobacterium species: L. acidophilus Ki (LAS), L. acidophilus La5, L. casei L26, L. plantarum 299V, L. rhamnosus RII, B. longum BG3 B. animalis spp. lactis BB12, B. animalis BLC, and B. animalis Bo. All the assays were performed using MRS broth supplemented with 0.5 g/L of L-cysteine. The peptides were combined with a 1/10 ratio of inoculum, containing 2% (v/v) of the probiotic and cultured for […] in MRS broth. For the positive control, deionized water was used instead of the peptides, with a 2% inoculum, while deionized water with MRS served as the negative control. Peptide wells with Bifidobacterium were sealed with paraffin to assure anaerobiosis conditions. The bacterial growth was monitored at 650 nm for 24 h at 37 °C in a microplate reader (Multiskan GO, Thermo Scientific, Finland), and the optical density (OD) was measured hourly. Growth curves were created by transforming the absorbance values in natural logarithms ln (Abs).

Lactobacillus species = assay: Probiotic growth curves; type: cell-based; conditions: L. acidophilus Ki, La5, L. plantarum 299V, L. casei, L. rhamnosus RII; HdKTLR 262, HdKNL 262, HdVLPN 204, HdLPN 227 µg/mL; MRS broth, 24 h, 37 °C, OD 650 nm
Protocol: as §3

[6] = ORAC assay of peptide mixed with mucus (synergy); set-up: Increase in ORAC antioxidant activity of peptide combined with mucus versus sum of the individual systems: concentration or dose not given beside the values; conditions: for Increase in ORAC antioxidant activity of peptide combined with mucus versus sum of the individual systems: one part peptide to four parts mucus; for ORAC of the peptide alone in the synergy experiment: one part peptide to four parts phosphate buffer, Figure 3 captive, Figure 4 wild series
Protocol: The ORAC assay followed the protocol outlined by Coscueta et al.. […] Fluorescence was monitored for 80 min at 1 min intervals. Each sample, standard, blank, or control, analysis was duplicated. The final ORAC values were expressed as µmol TE/µmol of peptide for the peptides and µmol TE /mg of protein for the digestion retentate and permeate contents. The synergistic interaction between the mucus and peptides was performed by mixing the peptides with mucus at a ratio of one part peptide to four parts mucus. In addition, control analyses were performed by mixing one part of the phosphate buffer with four parts of the mucus and another with one part of the peptide to four parts of the phosphate buffer. The mixtures were then tested in the ORAC assay. The final ORAC values were expressed as µM TE.

Sequence | Biofilm formation versus control (S. enterica biofilm) | Solubility (solvent) [1] | Antimicrobial activity (growth inhibition curve) [2] | Antimicrobial activity (growth inhibition curve) [3] | Antimicrobial activity (growth inhibition curve) [4] | Antimicrobial activity (growth inhibition curve) [5] | Biofilm formation versus control (P. aeruginosa biofilm) | ORAC (ORAC assay; SD) | Effect on probiotic growth (Bifidobacterium species) | Effect on probiotic growth (Lactobacillus species) | Increase in ORAC antioxidant activity of peptide combined with mucus versus sum of the individual systems ([6]; captive mucus sample) [%] | ORAC of the peptide alone in the synergy experiment [6] | ORAC (ORAC assay) [µmol TE/µmol Peptide] | Increase in ORAC antioxidant activity of peptide combined with mucus versus sum of the individual systems ([6]; wild mucus sample) [%]
DPPNPKNL [HdKNL] | no significant differences | H2O | did not demonstrate antimicrobial potential | did not demonstrate antimicrobial potential | did not demonstrate antimicrobial potential | did not demonstrate antimicrobial potential | substantially reduced biofilm production | 0.048 ± 0.002 ^a µmol TE/µmol Peptide | did not inhibit the growth | did not inhibit the growth | 126 | no antioxidant activity was detected | – | –
PFPGPLPN [HdLPN] | no significant differences | H2O | did not demonstrate antimicrobial potential | did not demonstrate antimicrobial potential | did not demonstrate antimicrobial potential | did not demonstrate antimicrobial potential | substantially reduced biofilm production | 0.195 ± 0.030 ^b,c µmol TE/µmol Peptide | did not inhibit the growth | did not inhibit the growth | 51 | – | 0.195 | 54
EDNSELGQETPTLR [HdKTLR] | no significant differences | H2O | did not demonstrate antimicrobial potential | did not demonstrate antimicrobial potential | did not demonstrate antimicrobial potential | did not demonstrate antimicrobial potential | substantially reduced biofilm production | – | did not inhibit the growth | did not inhibit the growth | – | no antioxidant activity was detected | – | –
VYPFPGPLPN [HdVLPN] | no significant differences | H2O | did not demonstrate antimicrobial potential | did not demonstrate antimicrobial potential | did not demonstrate antimicrobial potential | did not demonstrate antimicrobial potential | substantially reduced biofilm production | 1.560 ± 0.110 ^c µmol TE/µmol Peptide | did not inhibit the growth | did not inhibit the growth | 31 | – | 1.560 | 44
